In ChEMBL document CHEMBL5678804 (Cancer Cell, 2011):
Active and inactive are the calls of the source. The calls are words filed in the database; no cut-off is given here.

Key:
Leukemia cell = test: Cytotoxicity against human Leukemia cell assessed as reduction in cell viability measured after 72 hrs by MTT assay; format: functional, cell-based
Insulin receptor = Insulin receptor (Homo sapiens, UniProt P06213); test: Inhibition of human wild type IR using Poly(Ala,Glu,Lys,Tyr)6:2:5:1 as substrate preincubated for 2 hrs followed by ATP addition and measured every 2 mins for […] by spectrophotometric analysis
[1] = biological target: Homeodomain-interacting protein kinase 1 (Homo sapiens, UniProt Q86Z02); test: Inhibition of human wild type HIPK1 using RBER-CHKtide as substrate preincubated for 2 hrs followed by ATP addition and measured every 2 mins for […] by spectrophotometric analysis
[2] = biological target: Serine/threonine-protein kinase MARK1 (Homo sapiens, UniProt Q9P0L2); test: Inhibition of human wild type MARK1 using RBER-CHKtide as substrate preincubated for 2 hrs followed by ATP addition and measured every 2 mins for […] by spectrophotometric analysis
[3] = biological target: Homeodomain-interacting protein kinase 4 (Homo sapiens, UniProt Q8NE63); test: Inhibition of human wild type HIPK4 using RBER-IRStide as substrate preincubated for 2 hrs followed by ATP addition and measured every 2 mins for […] by spectrophotometric analysis
[4] = biological target: Serine/threonine-protein kinase Chk1 (Homo sapiens, UniProt O14757); test: Inhibition of human wild type CHK1 using RBER-CHKtide as substrate preincubated for 2 hrs followed by ATP addition and measured every 2 mins for […] by spectrophotometric analysis
[5] = biological target: Serine/threonine-protein kinase mTOR (Homo sapiens, UniProt P42345); test: Inhibition of human wild type mTOR using Casein as substrate preincubated for 2 hrs followed by ATP addition and measured every 2 mins for […] by spectrophotometric analysis
[6] = biological target: Vascular endothelial growth factor receptor 1 (Homo sapiens, UniProt P17948); test: Inhibition of human wild type FLT1 using PolyEY as substrate preincubated for 2 hrs followed by ATP addition and measured every 2 mins for […] by spectrophotometric analysis
BaF3 = test: Antitumor activity against mouse BaF3 cells harbouring BCR-ABL1 T315I mutant xenografted in Balb/c mouse model assessed as reduction in leukemia cell burden in spleen at 100 mg/kg, po administered twice daily; format: functional, organism-based
[7] = biological target: Mitogen-activated protein kinase kinase kinase 10 (Homo sapiens, UniProt Q02779); test: Inhibition of human wild type MLK2 using Histon H2B as substrate preincubated for 2 hrs followed by ATP addition and measured every 2 mins for […] by spectrophotometric analysis
[8] = biological target: Death-associated protein kinase 1 (Homo sapiens, UniProt P53355); test: Inhibition of human wild type DAPK1 using RBER-GSK3([…] to […]) as substrate preincubated for 2 hrs followed by ATP addition and measured every 2 mins for […] by spectrophotometric analysis
[9] = biological target: Tyrosine-protein kinase SYK (Homo sapiens, UniProt P43405); test: Inhibition of human wild type SYK using PolyEY as substrate preincubated for 2 hrs followed by ATP addition and measured every 2 mins for […] by spectrophotometric analysis
Ephrin type-B receptor 3 = Ephrin type-B receptor 3 (Homo sapiens, UniProt P54753); test: Inhibition of human wild type EPHB3 using PolyEY as substrate preincubated for 2 hrs followed by ATP addition and measured every 2 mins for […] by spectrophotometric analysis
[10] = biological target: cAMP-dependent protein kinase catalytic subunit PRKX (Homo sapiens, UniProt P51817); test: Inhibition of human wild type PRKX using RBER-GSK3([…] to […]) as substrate preincubated for 2 hrs followed by ATP addition and measured every 2 mins for […] by spectrophotometric analysis
[11] = biological target: Receptor tyrosine-protein kinase erbB-2 (Homo sapiens, UniProt P04626); test: Inhibition of human wild type HER2 using PolyEY as substrate preincubated for 2 hrs followed by ATP addition and measured every 2 mins for […] by spectrophotometric analysis
[12] = biological target: Glycogen synthase kinase-3 beta (Homo sapiens, UniProt P49841); test: Inhibition of human wild type GSK3 beta using RBER-CHKtide as substrate preincubated for 2 hrs followed by ATP addition and measured every 2 mins for […] by spectrophotometric analysis
[13] = biological target: Interleukin-1 receptor-associated kinase 4 (Homo sapiens, UniProt Q9NWZ3); test: Inhibition of human wild type IRAK4 using RB-CTF as substrate preincubated for 2 hrs followed by ATP addition and measured every 2 mins for […] by spectrophotometric analysis
[14] = biological target: Hepatocyte growth factor receptor (Homo sapiens, UniProt P08581); test: Inhibition of human wild type MET using Poly(Ala,Glu,Lys,Tyr)6:2:5:1 as substrate preincubated for 2 hrs followed by ATP addition and measured every 2 mins for […] by spectrophotometric analysis
[15] = biological target: Tyrosine-protein kinase ABL1 (Homo sapiens, UniProt P00519); details: Sf9, time 2.0 hrs
[16] = biological target: cGMP-dependent protein kinase 2 (Homo sapiens, UniProt Q13237); test: Inhibition of human wild type PKG2 using RBER-GSK3(14to 27) as substrate preincubated for 2 hrs followed by ATP addition and measured every 2 mins for […] by spectrophotometric analysis
[17] = biological target: RAC-alpha serine/threonine-protein kinase (Homo sapiens, UniProt P31749); test: Inhibition of human wild type AKT1 using RBER-GSK3([…] to […]) as substrate preincubated for 2 hrs followed by ATP addition and measured every 2 mins for […] by spectrophotometric analysis
SRSF protein kinase 1 = SRSF protein kinase 1 (Homo sapiens, UniProt Q96SB4); test: Inhibition of human wild type SRPK1 using MBP as substrate preincubated for 2 hrs followed by ATP addition and measured every 2 mins for […] by spectrophotometric analysis
[18] = biological target: Serine/threonine-protein kinase SIK2 (Homo sapiens, UniProt Q9H0K1); test: Inhibition of human wild type SIK2 using RBER-CHKtide as substrate preincubated for 2 hrs followed by ATP addition and measured every 2 mins for […] by spectrophotometric analysis
[19] = biological target: Serine/threonine-protein kinase PLK1 (Homo sapiens, UniProt P53350); test: Inhibition of human wild type PLK1 using RBER-CHKtide as substrate preincubated for 2 hrs followed by ATP addition and measured every 2 mins for […] by spectrophotometric analysis
[20] = biological target: Tyrosine-protein kinase BTK (Homo sapiens, UniProt Q06187); test: Inhibition of human wild type BTK using PolyEY as substrate preincubated for 2 hrs followed by ATP addition and measured every 2 mins for […] by spectrophotometric analysis
[21] = biological target: Maternal embryonic leucine zipper kinase (Homo sapiens, UniProt Q14680); test: Inhibition of human wild type MELK using RBER-CHKtide as substrate preincubated for 2 hrs followed by ATP addition and measured every 2 mins for […] by spectrophotometric analysis
[22] = biological target: Protein kinase C alpha type (Homo sapiens, UniProt P17252); test: Inhibition of human wild type PKC alpha using 3xChocktide-PKC(19to 31) as substrate preincubated for 2 hrs followed by ATP addition and measured every 2 mins for […] by spectrophotometric analysis
[23] = biological target: Serine/threonine-protein kinase pim-2 (Homo sapiens, UniProt Q9P1W9); test: Inhibition of human wild type PIM2 using RBER-GSK3(14to 27) as substrate preincubated for 2 hrs followed by ATP addition and measured every 2 mins for […] by spectrophotometric analysis

Sequence of Ephrin type-B receptor 3 (P54753 whole entry): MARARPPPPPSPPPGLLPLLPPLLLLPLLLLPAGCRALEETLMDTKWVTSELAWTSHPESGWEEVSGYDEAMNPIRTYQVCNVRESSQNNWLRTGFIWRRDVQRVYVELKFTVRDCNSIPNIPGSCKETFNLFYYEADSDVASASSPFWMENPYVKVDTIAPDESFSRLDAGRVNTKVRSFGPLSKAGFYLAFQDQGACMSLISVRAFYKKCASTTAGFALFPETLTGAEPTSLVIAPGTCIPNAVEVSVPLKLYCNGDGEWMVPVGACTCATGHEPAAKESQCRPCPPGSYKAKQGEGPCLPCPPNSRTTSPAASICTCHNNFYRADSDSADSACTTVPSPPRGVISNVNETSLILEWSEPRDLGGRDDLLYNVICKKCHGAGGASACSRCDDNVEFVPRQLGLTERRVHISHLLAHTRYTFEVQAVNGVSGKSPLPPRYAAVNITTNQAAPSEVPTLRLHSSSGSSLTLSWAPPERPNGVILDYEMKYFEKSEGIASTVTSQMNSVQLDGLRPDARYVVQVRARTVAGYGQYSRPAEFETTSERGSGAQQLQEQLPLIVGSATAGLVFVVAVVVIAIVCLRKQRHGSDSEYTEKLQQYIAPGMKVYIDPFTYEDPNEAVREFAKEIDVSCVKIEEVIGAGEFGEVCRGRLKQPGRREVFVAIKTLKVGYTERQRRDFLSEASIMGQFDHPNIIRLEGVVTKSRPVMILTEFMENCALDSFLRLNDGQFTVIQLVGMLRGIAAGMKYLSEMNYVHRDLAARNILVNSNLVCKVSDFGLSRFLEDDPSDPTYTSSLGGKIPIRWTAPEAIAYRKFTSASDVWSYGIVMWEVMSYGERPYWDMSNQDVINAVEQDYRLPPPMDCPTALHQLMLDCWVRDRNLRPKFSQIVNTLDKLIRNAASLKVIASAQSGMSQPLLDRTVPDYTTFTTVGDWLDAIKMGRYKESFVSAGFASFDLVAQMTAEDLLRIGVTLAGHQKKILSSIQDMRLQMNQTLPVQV
Sequence of Mitogen-activated protein kinase kinase kinase 10 (Q02779 whole entry): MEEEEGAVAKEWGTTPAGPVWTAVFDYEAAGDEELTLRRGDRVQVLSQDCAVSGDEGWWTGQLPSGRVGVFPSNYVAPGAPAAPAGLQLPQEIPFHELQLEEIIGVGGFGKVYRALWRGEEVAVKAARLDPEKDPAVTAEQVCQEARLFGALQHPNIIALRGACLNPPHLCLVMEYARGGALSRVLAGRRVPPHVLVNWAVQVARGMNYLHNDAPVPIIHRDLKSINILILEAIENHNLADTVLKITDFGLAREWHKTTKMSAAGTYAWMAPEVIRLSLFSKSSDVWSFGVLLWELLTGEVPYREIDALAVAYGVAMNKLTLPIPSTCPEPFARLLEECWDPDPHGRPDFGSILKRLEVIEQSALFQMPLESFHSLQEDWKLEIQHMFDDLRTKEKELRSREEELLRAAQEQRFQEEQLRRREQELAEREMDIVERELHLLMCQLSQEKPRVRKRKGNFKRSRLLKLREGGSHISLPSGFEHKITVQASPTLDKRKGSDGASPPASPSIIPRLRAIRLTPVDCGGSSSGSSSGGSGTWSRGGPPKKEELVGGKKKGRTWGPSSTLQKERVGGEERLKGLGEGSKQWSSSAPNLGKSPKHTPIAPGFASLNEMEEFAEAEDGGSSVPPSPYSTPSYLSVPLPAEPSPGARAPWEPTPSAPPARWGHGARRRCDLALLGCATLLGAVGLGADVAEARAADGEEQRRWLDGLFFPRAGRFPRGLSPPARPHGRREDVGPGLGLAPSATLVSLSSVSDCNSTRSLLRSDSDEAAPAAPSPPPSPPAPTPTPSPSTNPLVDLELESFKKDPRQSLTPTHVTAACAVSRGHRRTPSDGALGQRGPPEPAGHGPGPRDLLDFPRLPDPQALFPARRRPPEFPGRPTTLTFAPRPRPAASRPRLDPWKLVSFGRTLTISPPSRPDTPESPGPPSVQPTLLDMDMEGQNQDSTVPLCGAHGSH
Sequence of Interleukin-1 receptor-associated kinase 4 (Q9NWZ3 whole entry): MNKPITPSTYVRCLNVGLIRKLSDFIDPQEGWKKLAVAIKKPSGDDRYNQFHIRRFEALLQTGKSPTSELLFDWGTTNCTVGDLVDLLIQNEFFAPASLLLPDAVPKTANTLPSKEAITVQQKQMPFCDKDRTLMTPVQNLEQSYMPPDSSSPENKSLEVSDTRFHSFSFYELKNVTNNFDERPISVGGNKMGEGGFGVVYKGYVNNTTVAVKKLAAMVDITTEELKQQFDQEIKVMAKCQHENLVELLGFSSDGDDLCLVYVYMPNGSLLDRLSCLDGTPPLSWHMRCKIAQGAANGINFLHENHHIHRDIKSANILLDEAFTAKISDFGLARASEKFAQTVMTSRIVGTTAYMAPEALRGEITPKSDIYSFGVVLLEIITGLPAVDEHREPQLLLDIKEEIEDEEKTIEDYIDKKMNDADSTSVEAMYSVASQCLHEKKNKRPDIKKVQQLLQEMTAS
Sequence of Insulin receptor (P06213 28-758 limits assumed): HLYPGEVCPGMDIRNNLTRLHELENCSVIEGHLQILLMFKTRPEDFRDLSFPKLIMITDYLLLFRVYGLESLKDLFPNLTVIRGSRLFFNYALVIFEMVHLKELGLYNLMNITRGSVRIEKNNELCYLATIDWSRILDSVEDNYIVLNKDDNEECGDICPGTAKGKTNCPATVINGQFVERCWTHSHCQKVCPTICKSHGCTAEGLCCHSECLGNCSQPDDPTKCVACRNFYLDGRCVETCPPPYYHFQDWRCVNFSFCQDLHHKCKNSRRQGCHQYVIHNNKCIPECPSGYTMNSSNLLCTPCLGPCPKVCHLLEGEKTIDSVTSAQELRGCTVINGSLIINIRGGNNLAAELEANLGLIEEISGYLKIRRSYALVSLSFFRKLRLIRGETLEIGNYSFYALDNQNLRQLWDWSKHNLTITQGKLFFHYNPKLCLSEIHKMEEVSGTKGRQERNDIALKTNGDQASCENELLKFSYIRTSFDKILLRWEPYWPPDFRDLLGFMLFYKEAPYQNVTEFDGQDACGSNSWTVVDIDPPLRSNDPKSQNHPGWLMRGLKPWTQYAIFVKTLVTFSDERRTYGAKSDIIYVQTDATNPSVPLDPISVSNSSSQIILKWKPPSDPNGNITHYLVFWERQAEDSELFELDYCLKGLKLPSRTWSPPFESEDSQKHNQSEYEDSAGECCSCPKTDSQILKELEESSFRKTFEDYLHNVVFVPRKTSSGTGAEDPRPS
Sequence of Insulin receptor (P06213 763-1382 limits assumed): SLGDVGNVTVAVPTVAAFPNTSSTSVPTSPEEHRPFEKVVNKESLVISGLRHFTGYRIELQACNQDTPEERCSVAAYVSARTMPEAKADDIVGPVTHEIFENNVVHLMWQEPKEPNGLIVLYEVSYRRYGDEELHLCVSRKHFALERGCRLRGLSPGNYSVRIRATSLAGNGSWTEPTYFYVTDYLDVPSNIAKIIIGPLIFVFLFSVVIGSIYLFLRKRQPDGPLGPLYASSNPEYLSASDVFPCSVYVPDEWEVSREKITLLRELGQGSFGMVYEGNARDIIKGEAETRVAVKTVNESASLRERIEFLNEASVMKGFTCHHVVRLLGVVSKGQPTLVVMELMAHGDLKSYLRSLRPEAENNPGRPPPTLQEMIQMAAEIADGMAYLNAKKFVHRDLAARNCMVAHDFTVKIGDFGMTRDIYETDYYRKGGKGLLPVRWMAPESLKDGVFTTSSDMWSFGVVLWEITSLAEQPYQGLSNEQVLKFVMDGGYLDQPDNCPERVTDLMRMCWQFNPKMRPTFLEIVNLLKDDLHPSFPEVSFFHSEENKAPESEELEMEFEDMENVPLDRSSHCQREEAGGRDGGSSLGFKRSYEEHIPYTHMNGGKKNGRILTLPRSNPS
Sequence of cGMP-dependent protein kinase 2 (Q13237 whole entry): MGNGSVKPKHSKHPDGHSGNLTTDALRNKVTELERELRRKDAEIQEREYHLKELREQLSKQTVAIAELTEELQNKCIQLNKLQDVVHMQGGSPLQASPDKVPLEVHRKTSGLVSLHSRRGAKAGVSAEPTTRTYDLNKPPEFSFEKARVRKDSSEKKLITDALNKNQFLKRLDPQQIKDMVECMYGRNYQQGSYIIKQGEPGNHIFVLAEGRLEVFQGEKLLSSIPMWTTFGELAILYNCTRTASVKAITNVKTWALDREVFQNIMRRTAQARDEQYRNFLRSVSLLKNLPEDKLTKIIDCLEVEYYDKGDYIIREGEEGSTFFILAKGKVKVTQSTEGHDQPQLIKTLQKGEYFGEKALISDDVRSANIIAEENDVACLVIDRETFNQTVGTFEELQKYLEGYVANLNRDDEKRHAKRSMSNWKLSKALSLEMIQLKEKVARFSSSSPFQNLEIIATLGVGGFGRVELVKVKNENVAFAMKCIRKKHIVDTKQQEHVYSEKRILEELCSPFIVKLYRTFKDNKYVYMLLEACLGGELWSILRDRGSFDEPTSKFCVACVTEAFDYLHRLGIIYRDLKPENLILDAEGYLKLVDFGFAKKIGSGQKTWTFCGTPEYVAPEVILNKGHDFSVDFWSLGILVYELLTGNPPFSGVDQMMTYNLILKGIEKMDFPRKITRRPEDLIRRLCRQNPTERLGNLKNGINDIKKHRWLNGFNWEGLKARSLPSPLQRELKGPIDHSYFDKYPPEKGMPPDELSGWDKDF
Sequence of RAC-alpha serine/threonine-protein kinase (P31749 whole entry): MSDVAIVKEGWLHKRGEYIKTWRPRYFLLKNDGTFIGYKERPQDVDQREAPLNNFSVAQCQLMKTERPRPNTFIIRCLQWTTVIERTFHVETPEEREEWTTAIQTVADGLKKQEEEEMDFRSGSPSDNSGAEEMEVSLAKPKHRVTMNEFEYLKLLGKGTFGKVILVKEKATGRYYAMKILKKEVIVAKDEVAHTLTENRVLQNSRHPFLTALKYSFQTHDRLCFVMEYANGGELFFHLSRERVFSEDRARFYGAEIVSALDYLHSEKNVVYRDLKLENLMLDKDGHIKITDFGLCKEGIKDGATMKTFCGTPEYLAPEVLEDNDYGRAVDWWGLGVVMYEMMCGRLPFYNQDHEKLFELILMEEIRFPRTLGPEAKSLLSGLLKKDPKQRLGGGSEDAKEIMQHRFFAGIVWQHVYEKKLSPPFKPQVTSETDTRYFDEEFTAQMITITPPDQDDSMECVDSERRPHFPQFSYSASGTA

CNC(=O)c1cc(Oc2ccc(NC(=O)Nc3cc(C(C)(C)C)nn3-c3ccc4ncccc4c3)c(F)c2)ccn1 [REBASTINIB]
Activity (Leukemia cell): Active
IC50 (Insulin receptor): > 1 µM
IC50 [1]: > 1 µM
IC50 [2]: > 1 µM
IC50 [3]: 0.45 µM
IC50 [4]: > 1 µM
IC50 [5]: > 1 µM
IC50 [6]: 0.32 µM
Activity (BaF3): Active
IC50 [7]: > 1 µM
IC50 [8]: > 1 µM
IC50 [9]: 0.16 µM
IC50 (Ephrin type-B receptor 3): > 1 µM
IC50 [10]: > 1 µM
IC50 [11]: > 1 µM
IC50 [12]: > 1 µM
IC50 [13]: > 1 µM
IC50 [14]: 0.25 µM
Kdiss [15]: 3.33e-05 s⁻¹
IC50 [16]: > 1 µM
IC50 [17]: > 1 µM
IC50 (SRSF protein kinase 1): > 1 µM
IC50 [18]: > 1 µM
IC50 [19]: > 1 µM
IC50 [20]: 0.33 µM
IC50 [21]: > 1 µM
IC50 [22]: > 1 µM
IC50 [23]: > 1 µM
